Publication PMC7099597 (ACS Central Science, 2020)

How the values were obtained:
[1] = tested on: 4D5Flu Rip-3 (anti-fluorescein scFv); experiment: dose-dependent rescue of fluorescein quenching; format: binding, synthetic construct
[2] = tested on: 8B10 scFv Rip-3 (anti-MPTS); experiment: MPTS fluorescence quenching, protein titration; format: binding

EC50 [1] [µM] | EC50 [2] [µM] | Compound
16 |  | c1ccc(COc2ccc3cn[nH]c3c2)cc1 [Stitch-3, 6-(benzyloxy)indazole]
 | 1 | COc1cc(S(=O)(=O)O)c2ccc3c(S(=O)(=O)O)cc(S(=O)(=O)O)c4ccc1c2c43 [MPTS, 8-methoxypyrene-1,3,6-trisulfonic acid]
